Like-named read-outs stand apart in the source and are kept apart here.
Experiments:
[1] = human, in vivo
Protocol: In another study, three dose levels of rifalazil were administered for the treatment of non-gonococcal urethritis in 170 male patients. Doses used were in this study were single-doses of 2.5, 12.5 mg and 25 mg. Males were between 18-45 years of age with signs or symptoms of urethritis, including urethral discharge.

[2] = Phase 1 Study ABI-1648-009, food effect on PK of single 25-mg oral dose
[3] = Healthy volunteers, 25 or 50 mg once a week for 4 weeks, adverse events; format: in vivo, human
Protocol: In one study, healthy volunteers received 25 or 50 mg once a week for 4 weeks. The overall incidence of AEs was 33% after the first weekly dose, 12% after the second and third weekly dose, and 0% at the fourth weekly dose. No subject discontinued the study due to AEs, and no serious AEs were reported in this study. The predominant AEs reported in the rifalazil group but not in the placebo group included: back pain (2/6. 33%), chills (3/6, 50%), neck pain (1/6. 17%), insomnia, and a range of gastrointestinal (GI) disturbances such as anorexia, nausea, thirst and vomiting (all in 1/6 patients, 17%).
The lowest individual value for subjects receiving 25 mg/week was 2.2×10^3/mm^3 (Day 25), and for 50-mg/week subjects, 2.3×10^3/mm^3 (Day 11). All values returned to baseline within 2 weeks of cessation of dosing. […] The above normal values at 50 mg/week occurred in 1 subject, and were of moderate Grade 2 severity during the interval from approximately Day 15 to Day 78. […] All values returned to baseline levels within 2 weeks of cessation of dosing.
The phenomenon of accommodation or tolerance with repeat weekly dosing of rifalazil became evident during the course of the study for both the 25-mg and 50-mg doses. In the 25-mg dosage group, the peak incidence of AEs occurred in the first week and decreased substantially over the remaining weeks.

[4] = Non-clinical oral pharmacokinetics in the beagle dog; format: in vivo
Protocol: (§1) In rats and dogs, the Vdβ/F following oral administration was 40-80 L/kg. […] The highest mean Cmax observed was in the wall of the GI tract and occurred approximately 1 hour post-dose. […] A large tissue compartment of rifalazil is considered important for efficacy against Chlamydia given the intracellular nature of Chlamydia infection.

C. pneumoniae = test: Potency against C. pneumoniae compared with roxithromycin
Source text: The use of rifalazil in the treatment of PAOD is supported by both preclinical and clinical lines of evidence.

[5] = Non-clinical oral pharmacokinetics in the rat; format: in vivo; conditions: for bioavailability: rat, plasma, po
Protocol: as §1

[6] = Phase 1 pharmacokinetic analyses by gender, single or multiple doses 2.5-50 mg; format: in vivo, human
Protocol: There were no significant differences between males and females for AUC0-∞ when data were normalized to 1 mg/kg following single doses of 2.5 to 50 mg rifalazil (see FIG. 3 and FIG. 4).
The Vdβ/F was large indicating extensive distribution in the body. […] The mean minimum plasma concentrations (Cmin) of rifalazil over time during 5 days of dosing with 2.5 and 5 mg rifalazil increased from Days 2-6 in both males and females at both dose levels.

[7] = Single 25 mg rifalazil with Ortho-Novum 1/35 in post-menopausal female volunteers, adverse events; conditions: human, in vivo
Protocol: In another study, a single oral dose of 25 mg rifalazil was administered and its effects on ethinyl estradiol and norethindrone levels administered as the contraceptive Ortho-Novum 1/35® in 16 healthy post-menopausal female volunteers for 14 days was determined. The incidence of AEs was similar between the two treatment periods, with 13 (93%) of the 14 subjects included in the safety population experiencing at least 1 AE during dosing with Ortho-Novum 1/35 alone and 12 (86%) during dosing with rifalazil and Ortho-Novum 1/35. Overall, 4 (29%) subjects experienced at least 1 AE considered by the Investigator to be at least possibly related to rifalazil. The most commonly reported rifalazil-related events were nausea (4 subjects, 29%); headache (3 subjects, 21%); and loose stools, feeling hot, rigors, and myalgia (2 subjects each, 14%).
The majority of AEs were of mild or moderate intensity. One subject experienced myalgia of severe intensity during dosing with rifalazil and Ortho-Novum 1/35 that was assessed as probably related to study medication. […] Two subjects withdrew from the study because of AEs during the Ortho-Novum 1/35 only dosing period; neither subject received rifalazil.

[8] = Tissue concentrations after multiple oral doses in the monkey; format: in vivo
Protocol: as §1

[9] = 25 mg cumulative doses over one week, adverse events by regimen; format: in vivo, human
Protocol: Different dosing regimens of rifalazil that achieve 25-mg cumulative doses in 1 week also provide relevant clinical information on the safety of 25 mg administered as a single dose once per week.
For a cumulative dose of 25 mg, the overall incidence of AEs was somewhat lower when rifalazil was administered as 5 mg QD for 5 days, compared with a single dose of 25 mg (75%). Similarly, the overall incidence of drug-related AEs was lower when 25 mg was administered as a 5 mg for 5 days (63%), vs. 12.5 mg as 2 doses (separated by 72 hours) (70%), and as a single dose of 25 mg (75%).

## CO[C@H]1/C=C/O[C@@]2(C)Oc3c(C)c(O)c4c(=O)c(c5oc6cc(N7CCN(CC(C)C)CC7)cc(O)c6nc-5c4c3C2=O)NC(=O)/C(C)=C\C=C\[C@H](C)[C@H](O)[C@@H](C)[C@@H](O)[C@@H](C)[C@H](OC(C)=O)[C@@H]1C [rifalazil, 3′-hydroxy-5′-(4-isobutyl-1-piperazinyl) benzoxazinorifamycin]
[1]
  deaths, serious AEs, or discontinuations due to AEs: No deaths, serious AEs, or discontinuations due to AEs
[1]; male
  incidence of AEs considered possibly related to study drug: 23%
  incidence of clinically significant laboratory abnormalities: 21%
[2]; male, human, plasma, oral, 25 mg
  Tmax: ~3 h
[2]; overnight fast compared with 30% or 60% fat meal, single 25 mg
  absorption (Cmax and AUC) fasted versus fed: lower
[3]; 25 mg/week
  subjects with low WBC counts: three of six
  tolerability: fairly well tolerated
[3]; 25 mg/week, Day 25
  lowest individual WBC value: 2.2×10^3 /mm^3
[3]; 50 mg/week
  subjects with low WBC counts: 6 of 8
  tolerability: not considered well tolerated
[3]; 50 mg/week, Day 11
  lowest individual WBC value: 2.3×10^3 /mm^3
[3]; 50 mg/week, not in the 25 mg/week group
  mean AST and ALT values: transient increase
[3]; 25-mg/week
  subjects with Grade 4 lymphocyte toxicity: 1 subject
[3]; 25 and 50 mg/week
  time for WBC values to return to baseline after cessation of dosing: ≤ 2 weeks
[3]; 50-mg/week
  subjects with Grade 4 lymphocyte toxicity: 3 subjects
[3]; after the first weekly dose
  overall incidence of AEs: 33%
[3]; after the second and third weekly dose
  overall incidence of AEs: 12%
[3]; at the fourth weekly dose
  overall incidence of AEs: 0%
[3]; rifalazil group (1/6)
  neck pain: 17%
[3]; rifalazil group (2/6)
  back pain: 33%
[3]; rifalazil group (3/6)
  chills: 50%
[3]; rifalazil group (all in 1/6 patients)
  insomnia, anorexia, nausea, thirst and vomiting (each): 17%
[3]; rifalazil-treated groups
  asthenia: 33%
  dizziness: 50%
  fever: 67%
  headache: 67%
  pain: 50%
[4]; dogs, oral administration
  Vdβ/F: 40 to 80 L/kg
[4]; plasma, po, beagle dog, 10 mg/kg
  bioavailability: 16 to 17%
C. pneumoniae
  potency against C. pneumoniae relative to roxithromycin: 2000 times
[5]; female rats, 3 mg/kg
  bioavailability: 28.9%
[5]; female rats, 100 mg/kg
  bioavailability: 6.1%
[5]; male rats, 3 mg/kg
  bioavailability: 43.5%
[5]; male rats, 100 mg/kg
  bioavailability: 11.7%
[5]; rats, oral administration
  Vdβ/F: 40 to 80 L/kg
[6]; after 5 days of dosing with 2.5 and 5 mg
  steady state: does not appear that steady state was reached
[6]; both sexes, human, plasma, oral, following single doses, read-out: mean elimination t1/2
  half-life: 100 to 150 h
[6]; both sexes, human, plasma, oral, multiple dosing, up to 5 days, read-out: mean elimination t1/2
  half-life: 87 to 174 h
[6]; both sexes, human, plasma, oral, read-out: t1/2 (converted)
  half-life: ~100 h
[6]; both sexes, human, plasma, oral, single or multiple doses 2.5-50 mg, males and females, read-out: mean time to maximum concentration (Tmax)
  Tmax: 4 to 6 h
[6]; in vivo
  Vdβ/F: large
[6]; males and females, 2.5 to 50 mg, increase not dose proportional
  exposure (mean Cmax and AUC0-∞) as a function of dose: increased with rifalazil dose
[7]; female
  subjects experiencing at least 1 AE: 86%
[7]
  deaths or other serious AEs: No deaths or other serious AEs
  subjects with transient Grade 3 decreases in absolute lymphocyte count (ALC<0.5×10^3/mm^3): two
[8]
  concentrations in genitourinary and GI tissues and coronary arteries versus plasma: exceeded concentrations in plasma
[9]; 5 mg QD for 5 days (5/15 patients)
  incidence of flu-like symptoms: 33%
[9]; 5 mg for 5 days
  overall incidence of drug-related AEs: 63%
[9]; 12.5 mg as 2 doses separated by 72 hours
  overall incidence of drug-related AEs: 70%
[9]; 12.5 mg×2 dose regimen
  incidence of flu-like symptoms: 15%
[9]; 25 mg single-dose (3/16 patients)
  incidence of flu-like symptoms: 19%
[9]; single dose of 25 mg
  overall incidence of AEs: 75%
  overall incidence of drug-related AEs: 75%

Source: patent publication US20070112018A1, “Treatment of peripheral arterial occlusive disease” (priority 2005, published 2007)
